Like-named read-outs stand apart in the source and are kept apart here.
Key:
human lymphocytes = test: Metabolism of conjugate in human lymphocytes in tissue culture; assay type: in vitro ADME
Procedure: In another set of experiments the metabolism of the compound BM21-1290 using human lymphocytes in tissue culture was assessed. […] The predominant AZT species was AZT-MP with lesser amounts of AZT-DP, AZT-TP and AZT. […] AZT-MP can be activated to AZT-TP the inhibitor of HIV-1 induced reverse transcriptase.

[1] = Oral administration of phospholipid-AZT conjugate in rodents (distribution, half-life); design: species or system rodents (mice); conditions: mouse, in vivo
CEM-SS cells = test: Cytotoxicity (TC50) of the compounds tested for anti-HIV-1 activity; assay type: cell-based, human
Procedure: (§1) The inhibitory effects of PC lipids, non-PC lipid-AZT conjugates, and double-targeting PC lipid-AZT conjugate compounds of the invention on replication of HIV-1 virus in cells was examined using the plaque assay procedure described in Kucera et al. (1990, AIDS Research and Human Retroviruses, 6:491). CEM-SS cells were seeded at 50,000 cells per milliliter in RPMI growth medium as a monolayer in 96-well dishes, inoculated with 50 to 100 plaque forming units of HIV-1 and overlaid with serial dilutions of either PC lipid, non-PC lipid-AZT conjugate, or PC-lipid-AZT conjugate in RPMI-1640 growth medium supplemented with 10% fetal bovine serum. The structures of the tested compounds are described in Table 1. AZT and PC lipids were used as positive controls. […] The cytotoxicity of PC lipids, non-PC lipid-AZT conjugates and double targeting PC lipid-AZT conjugates was assessed using the procedure described in Kucera et al. (1990, AIDS Res. And Human Retrovir., 6:496, and 1998, Antiviral Chemistry and Chemotherapy, 9:160). [drawing 16]

HIV-1 = HIV-1 syncytial plaque assay in CEM-SS cells; assay type: cell-based
Procedure: as §1
In the plaque assay, HIV-1 syncytial plaques are seen as large, multicellular foci (10 to 25 nuclei/syncytium) that appear either brown and granular or clear. Because the number of HIV-1 syncytial plaques was correlated with reverse transcriptase (RT) and p24 core antigen activity in the HIV-1 infected cell overlay fluids, the syncytial plaque assay could be used to quantify the amount of infectious virus. Reverse transcriptase activity was assayed according to the procedure described by Poeisz et al. (1980, Proc. Natl. Acad. Sci. U.S.A. 77:7415). The activity of p24 core antigen induced by HIV-1 infection of CEM-SS cells was measured spectrophotometrically using the commercial Coulter enzyme immunoassay (EIA).

Friend leukemia virus = conditions: cited from earlier work
[2] = system: HIV-1 persistently infected H9IIIB cells; test: Induction of defective HIV-1 in persistently infected H9IIIB cells (RT activity after infecting fresh CEM-SS cells); assay type: cell-based; conditions: for DPM-Bkg: RT activity in CEM-SS overlay medium after 7 or 9 days, H9IIIB cells treated with 1.0 μM compound for 14 or 11 days; for % Inhibition: inhibition of RT activity as measure of defective virus formation, 1.0 μM compound, 14 or 11 days
Procedure: HIV-1 persistently infected H9IIIB cells were washed twice to remove extracellular HIV-1, resuspended in fresh growth medium with or without 1.0 μM of compound for a total of 14 days. During the treatment period, the cells were subcultured 1:3 three times a week. In addition, on days 3, 7 and 11, the cells were pelleted to remove extracellular HIV-1 before subculture in fresh growth medium with or without the compound. After 14 or 11 days of treatment, the virus was pelleted (100,000×g, 1 hr, 4 C.) from the overlay medium to remove free compound, resuspended in fresh medium without compound and assayed for RT activity. The virus suspension was normalized to 500,000 RT DPM and used to infect fresh CEM-SS cells. The infected CEM-SS cells were incubated for a total of 7 or 9 days, and the overlay medium was harvested and assayed for induction of RT activity. The % inhibition of RT activity was used as a measure of defective virus formation during the treatment period.

[3] = system: herpes simplex virus type 2; test: Herpes simplex virus type 2 plaque inhibition in Vero cells; assay type: cell-based
Procedure: Proof-of-concept of the antiviral activity of the double-targeting PC lipid-AZT conjugate compounds of the invention with respect to herpes simplex virus type 2 was evaluated and compared with that of PC lipid alone and with acyclovir (positive controls). Serial dilutions of PC lipid, PC lipid-AZT conjugate compound, or acyclovir were evaluated for inhibition of the formation of herpes simplex virus type 2 plaques in Vero cells and EC50 values were calculated from the results obtained. Briefly, the tests for anti-herpes simplex virus (HSV) activity and cytotoxicity of the compounds were performed by seeding 8×10^4 monkey kidney cells (Vero) per ml of D-MEM with 10% fetal bovine serum (FBS) in each well of a 12-well dish. The cultures were incubated at 37° C. to form a complete monolayer. To measure anti-HSV activity and effective concentration50 (EC50) each cell monolayer was infected with HSV diluted in PBS-A containing about 100 plaque forming units (PFU) per 0.1 ml. After virus attachment (1 hr., 37° C.) the infected monolayers were overlaid with E-MEM containing 2% FBS and 0.5% methyl cellulose with or without added serial concentrations of test compound. […] The EC50 values were calculated using a computer generated program.

[4] = system: monkey kidney cells (Vero); test: Cytotoxicity in Vero cell monolayers (cell morphology); assay type: cell-based; conditions: 48 hours at 37° C., lowest concentration changing morphology in at least 25% of the cells; for CC50: read-out: Cytotoxicity (TC50)
Procedure: To measure cytotoxicity of the compounds, the cell monolayers (described above) were treated with a serial concentration of test compound for 48 hours at 37° C. and visually examined after crystal violet staining by light microscopy for changes in cell morphology (cell rounding, shrinking, detachment) compared to an untreated control culture.

[5] = system: AZT-resistant clinical isolates of HIV-1; test: microbe, parasite or virus in culture; assay type: cell-based; conditions: for Fold-Increase (G-762 to G-691): post-AZT G-691 versus pre-AZT G-762; for Fold-Increase (H112-2 to G-910): post-AZT G-910 versus pre-AZT H112-2; for EC50: mean of 2 to 4 independent tests
Procedure: as §1
Evaluation of the clinical isolates to the compounds was performed using the plaque assay procedure described herein in Example 1. The matched pairs of clinical isolates were obtained through the AIDS Research and Reference Reagent Program, NIH, Bethesda, Md.

[6] = plaques counted after five days at 37° C., CEM-SS cells, read-out: Anti-HIV-1 Activity (EC50)
[7] = Vero cells, 2 days at 37° C., replicate values in one cell, read-out: Anti-Herpes Simplex Activity (EC50)
[8] = post-AZT isolate, patient code G-691, read-out: EC50 Post-AZT G-691
[9] = post-AZT isolate, patient code G-910, read-out: EC50 Post-AZT G-910
[10] = pre-AZT isolate, patient code G-762, read-out: EC50 Pre-AZT G-762
[11] = pre-AZT isolate, patient code H112-2, read-out: EC50 Pre-AZT H112-2
[12] = acyclovir in replicate tests, read-out: EC50 against herpes simplex virus type 2

Structure (SMILES)	CC50 (CEM-SS cells; read-out: Cytotoxicity (TC50))	EC50 (HIV-1; [6])	DPM-Bkg [2]	% Inhibition [2]	EC50 [3, 7]	Cytotoxicity (TC50) [4]	Fold-Increase (G-762 to G-691) [5]	Fold-Increase (H112-2 to G-910) [5]	EC50 [5, 8]	EC50 [5, 9]	EC50 [5, 10]	EC50 [5, 11]	CC50 [4]	also measured
CCCCCCCCCCCCSCC(COP(=O)(O)OCC1OC(n2cc(C)c(=O)[nH]c2=O)CC1N=[N+]=[N-])OCCCCCCCCCC (stereo not drawn) [BM21-1290]	38.5 µM	0.02 µM	–	–	–	–	–	–	–	–	–	–	–	intracellular metabolism (human lymphocytes): metabolized to form an alkyl-lipid plus a phosphorylated species of AZT; free AZT in the plasma [1]: little or no detectable free AZT in the plasma; half-life [1]: 48 h; tissue uptake [1]: preferentially taken up into lymphoid tissues (lymphoma, spleen and thymus); concentration in the brain versus plasma ([1]; po): equivalent to the concentration of BM21-1290 in the plasma; oral bioavailability ([1]; po): orally bioavailable
CCCCCCCCCCOC(CNC(=O)CCCCCCCCC)COP(=O)([O-])OCC[N+](C)(C)C (stereo not drawn) [INK-11, 1-decanamido-2-decyloxypropyl-3-phosphocholine]	–	–	–	–	–	–	–	–	–	–	–	–	–	inhibition of FLV-induced pathogenesis (splenomegaly) (Friend leukemia virus; 50 milligrams per kilogram of body weight per day for 21 days, infected mice): 42%; suppression against RT activity (Friend leukemia virus; INK-11 compared with AZT alone): 42%
CCCCCCCCCCCCSCC(COP(=O)([O-])OCC[N+](C)(C)C)OCCCCCCCCOCc1ccccc1 (stereo not drawn) [INK-17, 3-dodecylthio-2-(8′-benzyloxyoctyloxy)propyl phosphocholine]	–	0.15 ± 0.13 µM	2847 DPM	58%	> 4 µM	toxic @ 4	0	5.1	0.18 µM	0.2 µM	0.26 µM	0.04 µM	–	CC50 (CEM-SS cells): 49.1 ± 13.2 µM
CCCCCCCCCCCCSCC(COP(=O)([O-])OCC[N+](C)(C)C)OCCCCCCCCO (stereo not drawn) [INK-18, 3-dodeceylthio-2-(8′-hydroxyoctyloxy)propyl phosphophocholine]	50 ± 42 µM	1.92 ± 1.8 µM	4195 DPM	38%	–	–	0	1.8	0.6 µM	1.04 µM	> 1.06 µM	0.56 µM	–	–
CCCCCCCCCCCCSCC(COC(=O)CC(=O)OC[C@H]1O[C@@H](n2cc(C)c(=O)[nH]c2=O)C[C@@H]1N=[N+]=[N-])OC (stereo partly drawn) [INK-19]	6.3 ± 1.1 µM	0.006 ± 0.001 µM	2508 DPM	63%	> 20 µM	–	13.5	>55.6	1.62 µM	> 1.7 µM	0.12 µM	0.03 µM	> 20 µM	–
CCCCCCCCCCCCSCC(COP(=O)([O-])OCC[N+](C)(C)C)OCCCCCCCCC(=O)OCC(=O)OC[C@H]1O[C@@H](n2cc(C)c(=O)[nH]c2=O)C[C@@H]1N=[N+]=[N-] (stereo partly drawn) [INK-20]	6.9 ± 0.6 µM	–	2455 DPM	64%	> 20 µM	toxic @ 20	18.6	22.0	0.74 µM	0.44 µM	0.04 µM	0.02 µM	–	fold increase in AZT-resistance among HIV-1 clinical isolates ([5]; text summary over both isolate pairs): about 20 fold; cytotoxicity (CEM-SS cells): 6.9 ± 0.6 µM; anti-HIV-1 activity relative to AZT (HIV-1; compared with AZT): more than ten-fold higher than AZT; EC50 (HIV-1; read-out: anti-HIV-1 activity): 0.0009 µM
CCCCCCCCCCCCSCC(COP(=O)([O-])OCC[N+](C)(C)C)OCCCCCCCCCCOCc1ccccc1 (stereo not drawn) [INK-21]	57.3 ± 10.8 µM	1.5 ± 0.23 µM	–	–	> 20 µM	toxic @ 20	–	–	–	–	–	–	–	–
CCCCCCCCCCCCSCC(COP(=O)([O-])OCC[N+](C)(C)C)OCCCCCCCCCCO (stereo not drawn) [INK-22]	> 90.5 µM	0.39 ± 0.31 µM	–	–	> 20 µM	toxic @ 20	–	–	–	–	–	–	–	–
CCCCCCCCCCCCSCC(COP(=O)([O-])OCC[N+](C)(C)C)OCCCCCCCCCCCCOCc1ccccc1 (stereo not drawn) [INK-23]	> 100 µM	> 1.46 µM	–	–	> 20 µM	–	–	–	–	–	–	–	> 20 µM	–
CCCCCCCCCCCCSCC(COP(=O)([O-])OCC[N+](C)(C)C)OCCCCCCCCCCCCO (stereo not drawn) [INK-24]	80.6 ± 6.2 µM	0.39 ± 0.39 µM	3087 DPM	33%	13.9 µM	–	0	<1.0	0.08 µM	0.25 µM	0.19 µM	0.37 µM	> 20 µM	EC50 [3, 12]: 13.8 µM
CCCCCCCCCCCCSCC(COP(=O)([O-])OCC[N+](C)(C)C)OCCCCCCCCCCOC(=O)CC(=O)OC[C@H]1O[C@@H](n2cc(C)c(=O)[nH]c2=O)C[C@@H]1N=[N+]=[N-] (stereo partly drawn) [INK-25]	13.6 µM	0.02 ± 0.01 µM	2140 DPM	54%	> 20 µM	toxic @ 20	2	2.5	0.06 µM	0.01 µM	0.03 µM	0.004 µM	–	–
CCCCCCCCCCCCSCC(COP(=O)([O-])OCC[N+](C)(C)C)OCCCCCCCCCCCCOC(=O)CC(=O)OC[C@H]1O[C@@H](n2cc(C)c(=O)[nH]c2=O)C[C@@H]1N=[N+]=[N-] (stereo partly drawn) [INK-26]	11.6 µM	0.02 ± 0.02 µM	1793 DPM	61%	–	–	20	1.5	0.06 µM	0.03 µM	0.003 µM	0.02 µM	> 20 µM	EC50 [3, 12]: 12 µM

Source: patent publication US7026469B2, “Compositions and methods of double-targeting virus infections and cancer cells” (Wake Forest University School of Medicine, priority 2000, dated 2006)
